Tests used:
[1] = mass balance study with [14C]vibegron in healthy subjects; settings: human plasma at 2 and 4 hr
men and women with OAB = assay: Phase 2b study in OAB, efficacy (voiding diary); type: in vivo, human; settings: tolterodine ER 4 mg once daily
Text: Part 2 was designed to continue to assess the safety and efficacy of concomitant dosing. […] Subjects in both Part 1 and Part 2 had the option of enrolling in a 1-year extension. Participants were required to keep a voiding diary, recording the occurrence of each strong urge, total incontinence, and urge incontinence episode. Efficacy data for Part 1 and Part 2 are summarized herein.
The total number of urgency incontinence episodes must have exceeded the total number of stress incontinence episodes for all subjects.

[2] = test system: patients with overactive bladder
Text: A placebo group was included in the main study, and a group that received tolterodine monotherapy was included in the main study and in the extension.

patients with OAB = assay: Phase 2b vital sign changes (HR, SBP, DBP); type: in vivo, human; settings: Tolterodine 4 mg
Text: None led to discontinuation. The overall incidence of orthostatic symptoms was low.
Small differences in the percent of subjects exceeding categorical heart rate and blood pressure thresholds for vibegron were similar to those in the tolterodine arm.

[3] = test system: patients with overactive bladder; assay: Phase 2b 52-week extension safety; type: in vivo, human; settings: tolterodine ER 4 mg
Text: There were no deaths reported during the study.

healthy subjects = assay: thorough QT single oral dose study; type: in vivo, human; settings: single dose of moxifloxacin 400 mg
[4] = Tolterodine ER 4 mg, N = 257, first 12 weeks

O=C(O)C1OC(OC(c2ccccc2)C2CCC(Cc3ccc(NC(=O)C4CCc5nccc(=O)n54)cc3)N2)C(O)C(O)C1O (stereo not drawn) [M7]
share of total circulating drug-related material [1]: 12-14%

Cc1ccc(O)c([C@H](CCN(C(C)C)C(C)C)c2ccccc2)c1 [Tolterodine ER, tolterodine]
Total Incontinence Episodes, change from baseline Week 8, mean (men and women with OAB; OAB Wet subjects): −1.80
Total Incontinence Episodes, daily number, Week 8 mean (men and women with OAB; OAB Wet subjects): 1.32
Total Incontinence Episodes, difference from placebo Week 8, LS means (men and women with OAB; OAB Wet subjects): −0.34
Urgency Incontinence Episodes, change from baseline Week 8, mean (men and women with OAB; OAB Wet subjects): −1.67
Urgency Incontinence Episodes, daily number, Week 8 mean (men and women with OAB; OAB Wet subjects): 1.15
Urgency Incontinence Episodes, difference from placebo Week 8, LS means (men and women with OAB; OAB Wet subjects): −0.46
Micturitions, change from baseline Week 8, mean (men and women with OAB; Part 1): −1.73
Micturitions, daily number, Week 8 mean (men and women with OAB; Part 1): 9.24
Micturitions, difference from placebo Week 8, LS means (men and women with OAB; Part 1): −0.54
Urgency Episodes, change from baseline Week 8, mean (men and women with OAB; Part 1): −2.52
Urgency Episodes, daily number, Week 8 mean (men and women with OAB; Part 1): 3.91
Urgency Episodes, difference from placebo Week 8, LS means (men and women with OAB; Part 1): −0.94
change from baseline in volume voided per micturition, difference from placebo in LS means (men and women with OAB; Week 8): 30.77 mL
frequency of injuries ([2]; Phase 2 program): 2.1%
Accidental overdose, % [2, 4]: (2.3) %
Alanine aminotransferase increased, % [2, 4]: (0.4) %
Arthralgia, % [2, 4]: (1.2) %
Aspartate aminotransferase increased, % [2, 4]: (0.0) %
Constipation, % [2, 4]: (1.9) %
Diarrhea, % [2, 4]: (3.5) %
Discontinuation due to AE, % [2, 4]: (1.6) %
Dizziness, % [2, 4]: (1.9) %
Drug-related AE, % [2, 4]: (16.3) %
Dry eye, % [2, 4]: (3.9) %
Dry mouth, % [2, 4]: (8.6) %
Dysuria, % [2, 4]: (1.2) %
Fatigue, % [2, 4]: (2.3) %
Headache, % [2, 4]: (3.5) %
Nasopharyngitis, % [2, 4]: (1.6) %
Nausea, % [2, 4]: (2.3) %
Osteoarthritis, % [2, 4]: (0.0) %
Pain in extremity, % [2, 4]: (0.4) %
Serious AE, % [2, 4]: (1.2) %
Sinusitis, % [2, 4]: (0.4) %
Urinary tract infection, % [2, 4]: (4.7) %
≥1 AE, % [2, 4]: (45.1) %
incidence of dry mouth compared to placebo or vibegron monotherapy groups ([2]; groups that received tolterodine (alone or with vibegron), main study): higher
SAEs reported ([2]; tolterodine 4 mg, main study): 3
DBP change from baseline, mean (95% CI) Max, week 1 to 8 (patients with OAB): 5.19 (4.26, 6.13) mm Hg
DBP change from baseline, mean (95% CI), week 1 (patients with OAB): −0.12 (−1.10, 0.86) mm Hg
HR change from baseline, mean (95% CI) maximum, week 1 to 8 (patients with OAB): 5.66 (4.69, 6.63) bpm
HR change from baseline, mean (95% CI), week 1 (patients with OAB): 0.68 (−0.31, 1.67) bpm
SBP change from baseline, mean (95% CI) maximum, week 1 to 8 (patients with OAB): 7.29 (6.01, 8.57) mm Hg
SBP change from baseline, mean (95% CI), week 1 (patients with OAB): 0.04 (−1.36, 1.43) mm Hg
drug-related SAE [3]: one drug-related SAE of ileus paralytic
incidence of dry mouth compared to the other treatment groups [3]: higher

COc1c(N2C[C@@H]3CCCN[C@@H]3C2)c(F)cc2c(=O)c(C(=O)O)cn(C3CC3)c12 [moxifloxacin, reference compound]
effect on QTcF (healthy subjects): statistically significant effect
